Patent US11739064B2, “HDAC inhibitors and therapeutic methods using the same” (THE BOARD OF TRUSTEES OF THE UNIVERSITY OF ILLINOIS, priority 2015, dated 2023)
Like-named read-outs stand apart in the source and are kept apart here.

Key:
[1] = test system: BxPC3; assay: In vitro growth inhibition (GI), MTS cell proliferation assay (Table 5), BxPC3; format: cell-based; settings: Homo sapiens, BXPC-3, 72 hours post-treatment
[2] = test system: L3.6pl; assay: In vitro growth inhibition (GI), MTS cell proliferation assay (Table 5), L3.6pl; format: cell-based; settings: Homo sapiens, 72 hours post-treatment
[3] = test system: PANC1 cells; assay: Scratch-wound cell migration assay; format: cell-based; set-up: key to Inhibition of cell migration, 24 h / Inhibition of cell migration, 48 h: Level of inhibition (high to low): +++, ++ or +; Level of inhibition (high to low): +++, ++ or +; Level of inhibition (high to low): +++, ++ or +; no inhibition: −; settings: for Inhibition of cell migration, 24 h: PANC1, 24 h post wounding; for Inhibition of cell migration, 48 h: PANC1, 48 h post wounding
Protocol: FIG. 2 contains photographs of PANC1 cells treated with present compounds 9 and 6 taken 24 and 48 hours (post wounding) after a scratch was made through a confluent layer of cells; and
PANC1 Cell migration and effect on T and NK Cells. The effect of HDAC6 inhibition on cell migration and cellular cytotoxicity was evaluated. […] Thus, these HDAC6-selective inhibitors could function well to block metastasis. However, in contrast to the effect observed on cell migration, none of the compounds tested affected CD8+ T cell or natural killer (NK) cell-mediated cytotoxicity, despite the ability of the compounds to substantially increase the levels of acetyl-tubulin in these cell lines.

[4] = biological target: Human HDAC1 (Homo sapiens, UniProt Q13547); assay: In vitro HDAC inhibition assay, HDAC1
Human HDAC1, sequence (Q13547 whole entry, canonical isoform): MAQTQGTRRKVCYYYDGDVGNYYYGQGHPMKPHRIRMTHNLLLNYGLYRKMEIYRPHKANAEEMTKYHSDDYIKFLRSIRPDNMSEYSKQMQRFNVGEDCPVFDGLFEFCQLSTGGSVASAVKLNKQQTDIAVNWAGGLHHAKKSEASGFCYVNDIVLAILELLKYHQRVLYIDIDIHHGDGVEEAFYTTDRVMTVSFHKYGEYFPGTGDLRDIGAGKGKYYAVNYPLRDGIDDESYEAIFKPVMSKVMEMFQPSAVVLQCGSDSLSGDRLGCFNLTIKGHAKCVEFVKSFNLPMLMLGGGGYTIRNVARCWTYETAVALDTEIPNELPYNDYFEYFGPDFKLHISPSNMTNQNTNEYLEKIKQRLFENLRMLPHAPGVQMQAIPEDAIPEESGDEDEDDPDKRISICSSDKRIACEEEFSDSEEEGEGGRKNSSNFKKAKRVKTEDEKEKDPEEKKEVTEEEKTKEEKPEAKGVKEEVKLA

[5] = biological target: HDAC3/NcoR2 complex (Homo sapiens, UniProt O15379); assay: In vitro HDAC inhibition assay, HDAC3; format: biochemical; settings: NI = No inhibition at a concentration of 50 pM (footnote b); read-out: HDAC isoform IC50, HDAC3
HDAC3/NcoR2 complex, sequence (O15379 whole entry, canonical isoform): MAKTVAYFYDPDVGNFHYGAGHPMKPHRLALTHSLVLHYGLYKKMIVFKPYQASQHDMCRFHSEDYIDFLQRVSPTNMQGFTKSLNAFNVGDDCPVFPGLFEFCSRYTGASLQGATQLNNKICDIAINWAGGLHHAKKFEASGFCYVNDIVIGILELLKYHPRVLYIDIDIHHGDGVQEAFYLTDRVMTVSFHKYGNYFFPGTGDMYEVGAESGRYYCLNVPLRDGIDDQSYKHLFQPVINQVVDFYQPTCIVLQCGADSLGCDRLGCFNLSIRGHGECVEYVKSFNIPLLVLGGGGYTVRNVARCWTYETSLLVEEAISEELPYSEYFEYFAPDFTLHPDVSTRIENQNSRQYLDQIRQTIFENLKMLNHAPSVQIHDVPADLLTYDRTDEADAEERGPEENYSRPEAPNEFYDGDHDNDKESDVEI
HDAC3/NcoR2 complex, sequence (Q9Y618 395-489 partner limits assumed): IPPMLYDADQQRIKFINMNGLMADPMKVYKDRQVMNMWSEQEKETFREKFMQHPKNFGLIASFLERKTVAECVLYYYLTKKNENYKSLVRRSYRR

[6] = biological target: T1, Human HDAC6 (Homo sapiens, UniProt Q9UBN7); assay: In vitro HDAC inhibition assay, HDAC6; format: biochemical; settings: read-out: HDAC isoform IC50, HDAC6
T1 construct: Full length with N-terminal GST tag, MW=159 kDa; GST (N); host or cells: baculovirus expression system, Sf9 cells
T1 sequence (Q9UBN7 1-1215): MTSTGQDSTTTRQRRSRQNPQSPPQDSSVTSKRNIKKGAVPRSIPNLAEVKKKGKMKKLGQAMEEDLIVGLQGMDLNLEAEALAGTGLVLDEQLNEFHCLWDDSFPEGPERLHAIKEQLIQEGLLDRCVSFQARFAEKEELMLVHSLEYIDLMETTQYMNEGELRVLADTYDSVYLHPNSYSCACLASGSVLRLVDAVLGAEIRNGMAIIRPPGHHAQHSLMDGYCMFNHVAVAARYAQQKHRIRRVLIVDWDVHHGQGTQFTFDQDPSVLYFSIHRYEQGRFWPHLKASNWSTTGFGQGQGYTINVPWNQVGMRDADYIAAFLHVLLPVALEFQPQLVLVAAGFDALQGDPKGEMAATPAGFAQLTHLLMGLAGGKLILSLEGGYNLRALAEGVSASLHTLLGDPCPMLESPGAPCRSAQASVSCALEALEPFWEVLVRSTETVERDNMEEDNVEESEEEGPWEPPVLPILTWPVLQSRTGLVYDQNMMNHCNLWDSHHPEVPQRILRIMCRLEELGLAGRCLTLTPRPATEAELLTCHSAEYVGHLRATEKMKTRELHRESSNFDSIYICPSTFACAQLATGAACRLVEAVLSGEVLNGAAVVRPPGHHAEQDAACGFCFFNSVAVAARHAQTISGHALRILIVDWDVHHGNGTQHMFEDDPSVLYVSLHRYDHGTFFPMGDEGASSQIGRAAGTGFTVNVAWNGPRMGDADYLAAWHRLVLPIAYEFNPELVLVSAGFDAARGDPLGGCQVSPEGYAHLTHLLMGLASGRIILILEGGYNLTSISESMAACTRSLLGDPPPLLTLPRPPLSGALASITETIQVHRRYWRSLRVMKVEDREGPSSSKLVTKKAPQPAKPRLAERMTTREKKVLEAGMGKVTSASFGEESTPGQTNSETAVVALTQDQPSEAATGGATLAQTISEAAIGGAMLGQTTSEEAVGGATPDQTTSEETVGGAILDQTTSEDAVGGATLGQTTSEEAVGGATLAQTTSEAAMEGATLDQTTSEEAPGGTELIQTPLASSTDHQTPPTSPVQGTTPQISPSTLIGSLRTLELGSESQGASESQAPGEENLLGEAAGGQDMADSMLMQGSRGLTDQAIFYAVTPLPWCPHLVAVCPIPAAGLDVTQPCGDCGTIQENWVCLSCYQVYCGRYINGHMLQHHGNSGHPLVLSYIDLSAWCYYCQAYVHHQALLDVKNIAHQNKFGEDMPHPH

[7] = biological target: T2, HDAC10 (Homo sapiens, UniProt Q969S8); assay: In vitro HDAC inhibition assay, HDAC10; format: biochemical; settings: NI = No inhibition at a concentration of 50 pM (footnote b); read-out: HDAC isoform IC50, HDAC10
T2 sequence (Q969S8 1-669): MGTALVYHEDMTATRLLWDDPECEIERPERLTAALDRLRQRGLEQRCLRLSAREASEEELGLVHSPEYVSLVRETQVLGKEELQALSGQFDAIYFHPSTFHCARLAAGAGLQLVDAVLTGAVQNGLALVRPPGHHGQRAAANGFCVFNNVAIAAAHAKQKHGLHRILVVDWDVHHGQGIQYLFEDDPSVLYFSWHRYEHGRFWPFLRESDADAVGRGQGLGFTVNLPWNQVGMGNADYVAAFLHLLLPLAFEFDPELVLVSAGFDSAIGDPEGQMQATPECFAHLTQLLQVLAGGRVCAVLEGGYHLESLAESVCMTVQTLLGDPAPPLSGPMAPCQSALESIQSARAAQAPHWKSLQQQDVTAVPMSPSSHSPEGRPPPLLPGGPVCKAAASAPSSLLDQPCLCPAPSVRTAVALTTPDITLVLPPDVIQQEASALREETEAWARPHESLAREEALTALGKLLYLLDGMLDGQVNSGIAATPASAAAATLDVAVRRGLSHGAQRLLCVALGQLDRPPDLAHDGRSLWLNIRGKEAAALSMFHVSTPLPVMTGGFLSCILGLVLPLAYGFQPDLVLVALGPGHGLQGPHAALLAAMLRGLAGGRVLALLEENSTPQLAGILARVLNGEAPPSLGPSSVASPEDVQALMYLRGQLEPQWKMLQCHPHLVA

[8] = biological target: HDAC2 (Homo sapiens, UniProt Q92769); assay: In vitro HDAC inhibition assay, HDAC2; format: biochemical; settings: NI = No inhibition at a concentration of 50 pM (footnote b); read-out: HDAC isoform IC50, HDAC2
HDAC2, sequence (Q92769 whole entry, canonical isoform): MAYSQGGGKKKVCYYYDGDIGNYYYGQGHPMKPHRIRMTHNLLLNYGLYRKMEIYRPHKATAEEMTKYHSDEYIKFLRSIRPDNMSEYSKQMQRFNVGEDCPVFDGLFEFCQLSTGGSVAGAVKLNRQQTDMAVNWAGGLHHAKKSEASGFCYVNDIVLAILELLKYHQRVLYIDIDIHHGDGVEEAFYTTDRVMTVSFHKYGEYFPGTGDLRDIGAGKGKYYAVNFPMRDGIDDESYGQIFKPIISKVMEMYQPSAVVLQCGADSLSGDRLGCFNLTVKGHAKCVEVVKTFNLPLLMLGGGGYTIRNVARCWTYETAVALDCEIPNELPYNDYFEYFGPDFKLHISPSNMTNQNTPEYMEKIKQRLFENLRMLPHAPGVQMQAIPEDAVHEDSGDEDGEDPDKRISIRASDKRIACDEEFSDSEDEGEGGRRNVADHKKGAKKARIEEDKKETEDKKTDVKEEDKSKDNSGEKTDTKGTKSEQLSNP

[9] = test system: acetylated alpha-tubulin; assay: Accumulation of acetylated alpha-tubulin in pancreatic cancer cells; format: cell-based; settings: FIG. 1A
Excerpt: Cell cycle and inhibition of alpha-tubulin deacetylation.

[10] = read-out: HDAC isoform IC50, HDAC1, NI = No inhibition at a concentration of 50 pM (footnote b)

Row | GI50 [1] [nM] | IC50 [4] [nM] | IC50 [5] [nM] | IC50 [6] [nM] | IC50 [7] [nM] | IC50 [4, 10] [nM] | IC50 [8] [nM] | Structure (SMILES) | GI50 [2] [nM] | Inhibition of cell migration, 24 h [3] | Inhibition of cell migration, 48 h [3] | Accumulation of acetylated alpha-tubulin [9] | Effect on PANC1 cell migration ([3]; compared to diluent-treated control cells)
1 | > 50000 | 54000 | 98800 | 7.7 |  |  |  | CC(C)(C)OC(=O)Nc1cccc(-c2cc(C(=O)NCCc3cc(C(=O)NO)no3)no2)c1 [Compound 7, (3-{3-[2-(3-Hydroxycarbamoyl-isoxazol-5-yl)-ethylcarbamoyl]-isoxazol-5-yl}-phenyl)-carbamic acid tert-butyl ester] | > 50000 | + | + |  | 
2 |  | 46600 | 37800 | 430 |  |  |  | O=C(NC(Cc1cc(C(=O)NO)no1)Cc1c[nH]c2ccccc12)c1ccc(Cl)cc1 (centres unmarked) [Compound 19, 5-[2-(4-Chloro-benzoylamino)-3-(1H-indol-3-yl)-propyl]-isoxazole-3-carboxylic acid hydroxyamide] |  |  |  |  | 
3 | > 50000 |  | 5190 | 101 | 12500 | 3910 | 41300 | CCOC(=O)Nc1ccc(-c2cc(C(=O)NCCc3cc(C(=O)NO)no3)no2)cc1 [Compound 8, (4-{3-[2-(3-Hydroxycarbamoyl-isoxazol-5-yl)-ethylcarbamoyl]-isoxazol-5-yl}-phenyl)-carbamic acid ethyl ester] | 47000 |  |  |  | 
4 |  |  | 448 | 41.2 | 52.9 | 401 | 1140 | CC(C)(C)OC(=O)Nc1ccc(-c2csc(NC(=O)CCCc3cc(C(=O)NO)no3)n2)cc1 [Compound 3, (4-{2-[4-(3-Hydroxycarbamoyl-isoxazol-5-yl)-butyrylamino]-thiazol-4-yl}-phenyl)-carbamic acid tert-butyl ester] |  |  |  |  | 
5 |  |  | 669 | 2.6 | 191 | 212 | 4300 | O=C(NO)c1ccc(CNC(=O)c2cc(-c3cccc(NC(=O)C4CCCCC4)c3)on2)cc1 [Compound 17, 5-[3-(Cyclohexanecarbonyl-amino)-phenyl]-isoxazole-3-carboxylic acid 4-hydroxycarbamoyl-benzylamide] |  |  |  |  | 
6 |  |  | 215 | 5.4 | 204 | 350 | 2490 | O=C(NO)c1ccc(CNC(=O)c2cc(-c3ccc(NC(=O)C4CCCCC4)cc3)on2)cc1 [Compound 16, 5-[4-(Cyclohexanecarbonyl-amino)-phenyl]-isoxazole-3-carboxylic acid 4-hydroxycarbamoyl-benzylamide] |  |  |  |  | 
7 | 7000 |  | 107 | 3.3 | 271 | 266 | 1100 | CCOC(=O)Nc1cccc(-c2csc(NC(=O)CCc3cc(C(=O)NO)no3)n2)c1 [Compound 5, (3-{2-[3-(3-Hydroxycarbamoyl-isoxazol-5-yl)-propionylamino]-thiazol-4-yl}-phenyl)-carbamic acid ethyl ester] | 2100 |  |  |  | 
8 | > 50000 |  | 7050 | 4.4 | 4630 | 2930 | 10400 | O=C(Nc1cccc(-c2cc(C(=O)NCCc3cc(C(=O)NO)no3)no2)c1)c1ccccc1 [Compound 12] | > 50000 | − | − | accumulation of acetylated alpha-tubulin | 
9 | > 50000 |  |  | 6.7 |  |  |  | O=C(NO)c1cc(CCNC(=O)c2cc(-c3cccc(NC(=O)C4CCCCC4)c3)on2)on1 [Compound 11] | > 50000 | + | − | accumulation of acetylated alpha-tubulin | 
10 |  | 49900 | 54100 | 721 |  |  |  | COc1ccc(C(=O)NC(Cc2cc(C(=O)NO)no2)Cc2c[nH]c3ccccc23)cc1OC (centres unmarked) [Compound 21, 5-[2-(3,4-Dimethoxy-benzoylamino)-3-(1H-indol-3-yl)-propyl]-isoxazole-3-carboxylic acid hydroxyamide] |  |  |  |  | 
11 |  | 76000 |  | 21.2 | 40100 |  |  | CC(C)(C)C(=O)Nc1cccc(-c2cc(C(=O)NCCc3cc(C(=O)NO)no3)no2)c1 [Compound 10, 5-[2-({5-[3-(2,2-Dimethyl-propionylamino)-phenyl]-isoxazole-3-carbonyl}-amino)-ethyl]-isoxazole-3-carboxylic acid hydroxyamide] |  | − | − | accumulation of acetylated alpha-tubulin | 
12 |  |  | 41600 | 3050 |  |  |  | O=C(NO)c1cc(CC(Cc2c[nH]c3ccccc23)NC(=O)C(F)(F)F)on1 (centres unmarked) [Compound 20, 5-[3-(1H-Indol-3-yl)-2-(2,2,2-trifluoro-acetylamino)-propyl]-isoxazole-3-carboxylic acid hydroxyamide] |  |  |  |  | 
13 | 12000 |  | 1770 | 16.8 | 5290 | 6680 | 2360 | Nc1cccc(-c2cc(C(=O)NCCc3cc(C(=O)NO)no3)no2)c1 [Compound 9, 5-(2-{[5-(3-Amino-phenyl)-isoxazole-3-carbonyl]-amino}-ethyl)-isoxazole-3-carboxylic acid hydroxyamide] | 3300 | + | − | accumulation of acetylated alpha-tubulin | partial effect
